Our source for the IC50 values is PubChem BioAssay AID1053172 (The Scripps Research Institute Molecular Screening Center, 2014).

Usually IC50 stands for the concentration needed to halve the response being measured.

Structures are written as SMILES. Calls of active or inactive are those of the source. The rule behind the calls is not given here.

This assay deals with HIV-1 integrase / human LEDGF/p75 complex. The experiment in a line: inhibitors of HIV-1 IN-LEDGF/p75 DNA integration, dose response, biochemical, TR-FRET (AID 1053172).

In the case of `Cc1ccc(N2C(=O)NC(=O)/C(=C/c3ccoc3)C2=O)cc1`, the IC50 is 2000 nM.
In the case of `O=c1c(O)c(-c2ccc(O)c(O)c2)oc2cc(O)cc(O)c12`, the IC50 is 498 nM.
The same measure for `CCOc1cccc(N2C(=O)/C(=C/c3ccco3)C(=O)NC2=S)c1`: 1550 nM.
As to `Cc1cc(-c2csc(N)n2)c(C)n1Cc1ccco1`, the IC50 was > 36600 nM (inactive).
On to `C[C@@H]1O[C@@H](O[C@@H]2[C@@H](O)[C@H](OCCc3ccc(O)c(O)c3)O[C@H](CO)[C@H]2OC(=O)/C=C/c2ccc(O)c(O)c2)[C@H](O)[C@H](O)[C@H]1O`, for which the IC50 was 1410 nM.
The same measure for `O=C(N/N=C/c1cccc(F)c1)c1cc(-c2ccco2)nc2ccccc12`: 3850 nM.
As for `Oc1ccc(C=Nc2cccc3ncccc23)c(O)c1`, the figure is > 36500 nM (inactive).
The same measure for `O=c1cc(-c2ccc(O)cc2)oc2c(O)c(O)c(O)c(O)c12`: 341 nM; for `O=C(O)c1ccc(-n2c(-c3cc(-c4ccco4)[nH]n3)n[nH]c2=S)cc1`: 7320 nM.
In the case of `Nc1c(C(=O)NCC2CCCO2)sc2nc3c(c(-c4ccco4)c12)CC/C3=C\c1ccco1` (stereo unspecified), the half-maximal inhibitory concentration (IC50) is 1350 nM.
`C=C1c2cccc(O)c2C(O)=C2C(=O)[C@]3(O)C(O)=C(C(N)=O)C(=O)[C@@H](N(C)C)[C@@H]3[C@@H](O)[C@H]12`: the IC50 is 2720 nM.
For `C=C(C)C(=O)Nc1cccc(C2=NOC3(C2)C[C@@H](C(N)=O)N(C(=O)C2(C)CC2)C3)c1` (stereo partly specified), the IC50 was 2390 nM.
The same measure for `O=C(O)c1ccc(NC2=C/C(=N/S(=O)(=O)c3cccs3)c3ccccc3C2=O)cc1`: 996 nM; for `O=C1OC(c2cccs2)=N/C1=C/c1ccc(-c2cccc(C(=O)O)c2)o1`: “inactive”.
Turning to `CN(C)c1ccc2nc3ccc(=O)cc-3sc2c1`, the IC50 is > 36500 nM (inactive).
In the case of `Cc1nc2ccccc2c(=O)n1/N=C/c1ccc(O)c(O)c1O`, the IC50 is 2450 nM.
Take `COc1c(-c2ccc(O)c(O)c2)oc2cc(O)cc(O)c2c1=O`: the IC50 was 1900 nM.
For `CC1CCCC(C)N1/N=C/c1ccc(O)c(O)c1` (stereo unspecified), the IC50 was 3370 nM.
The same measure for `Cc1cnc(C=NNC(N)=S)c2cccc(N)c12`: “inactive”; for `O=S(=O)(O)c1cc(O)c2cc(Nc3ccccc3)ccc2c1`: 2730 nM; for `Cc1cc(C(=O)N/N=C/c2ccc(O)c([N+](=O)[O-])c2)c(C)n1-c1ccc(F)cc1`: “inactive”.
The same measure for `Nc1ccc2nc3c(=O)[nH]c(=S)[nH]c3nc2c1`: 1360 nM; for `C/C(=N\NC(=O)c1cc(O)ccc1O)c1cccc(NC(=O)c2ccc(Cl)cc2)c1`: “inactive”.
In the case of `O=C(O)C(Cc1ccccc1)N1C(=O)/C(=C/C=C/c2ccco2)SC1=S` (stereo unspecified), the IC50 was 2740 nM.
The same measure for `Nc1ccc2c(c1)C/C(=C/c1ccco1)C2=O`: > 36600 nM (inactive); for `Cc1ccc(-c2nn(-c3ccccc3)cc2/C=C2\SC(=S)N(CCCCCC(=O)O)C2=O)o1`: “inactive”; for `C=C(C)C(=O)Nc1cccc(C2=NOC3(C2)C[C@@H](C(N)=O)N(C(=O)/C(C)=C/C)C3)c1` (stereo partly specified): 3250 nM.
Regarding `CCOc1ccc(Nc2ccc(N)c(S(=O)(=O)O)c2)cc1`, the IC50 entry was “inactive”.
The same measure for `N#Cc1c(NC(=O)CSc2ncnc3sccc23)oc(-c2ccco2)c1-c1ccco1`: “inactive”; for `O=C(O)COc1ccc2c(c1)O/C(=C\c1ccco1)C2=O`: 1610 nM.
As for `O=C1NC(=S)NC(=O)C1=Cc1cccn1-c1ccc(O)cc1`, the figure is 2210 nM; as for `O=c1[nH]c2cc3c(cc2cc1CN(Cc1cccnc1)Cc1nnnn1Cc1ccco1)OCCO3`, “inactive”; as for `N#C/C(=C\c1ccc(O)c(O)c1)C(=O)c1ccc(O)c(O)c1`, 79.5 nM.
The same measure for `O=C(NN1C(=O)/C(=C/C=C/c2ccco2)SC1=S)c1ccncc1`: 1200 nM.
In the case of `O=C(Nc1nc(-c2ccco2)c(-c2ccco2)s1)C1CC(=O)N(c2ccc3c(c2)OCCO3)C1` (stereo unspecified), the IC50 result is “inactive”.
`CSc1nc(N(CCO)CCO)c2sc3nc(-c4ccco4)c4c(c3c2n1)CCC4`: the IC50 is 4850 nM.
